Source: US11999742B2, “Substituted pyrrolo[1,2-b]pyridazines as anthelmintics” (BOEHRINGER INGELHEIM VETMEDICA GMBH, priority 2021, dated 2024)

Assays:
[1] = tested on: Microfilaria of Dirofilaria immitis; test: Motility of Dirofilaria immitis microfilariae in microtiter plate, 3 days, dose response; format: cell-based; conditions: 72 h, read-out: EC50, motility of D. immitis microfilaria, three days at 37° C., 5% CO2, vs DMSO control
[2] = tested on: L4 stage larvae of Dirofilaria immitis; test: Motility of L4 stage Dirofilaria immitis larvae, 3 days, dose response; format: cell-based; conditions: 72 h, read-out: EC50, motility of L4 stage D. immitis, three days at 37° C., 5% CO2, vs DMSO control
[3] = tested on: Haemonchus contortus L1 larvae; test: Haemonchus contortus larval development L1 to L3, 4 days, dose response; conditions: 96 h, read-out: EC50, development of H. contortus larvae from L1 to L3
From the text: Biological Example 2: Screening Method to Test Activity of Compounds Against Haemonchus contortus

SMILES | EC50 [1] | EC50 [2] | EC50 [3]
Cc1cc2c(N3CC(C)(C)C3)c(C(=O)N[C@H]3CCOc4ccccc43)cnn2c1-c1cc(Cl)cc(Cl)c1Cl [Compound A563] | 1000 to 10000 nM | 1000 to 10000 nM | 1000 to 10000 nM
Cc1cc2c(C(C)(C)C)c(C(=O)N[C@H]3CCOc4ccncc43)cnn2c1-c1cc(F)cc(Cl)c1Cl [Compound A569] | < 10 nM | – | –
Cc1cc2c(C(C)(C)C)c(C(=O)N[C@H]3CCCc4ccccc43)cnn2c1-c1cc(F)cc(Cl)c1Cl [Compound A557] | < 10 nM | < 10 nM | < 10 nM
Cc1cc2c(C(C)C)c(C(=O)NN3CCOc4ccccc43)cnn2c1-c1cc(F)cc(Cl)c1Cl [Compound A498] | < 10 nM | < 10 nM | 10 to 100 nM
Cc1cc2c(C(C)(C)C)c(C(=O)N[C@H]3CCOc4ncsc43)cnn2c1-c1cc(F)cc(Cl)c1Cl [Compound A551] | 10 to 100 nM | 10 to 100 nM | 10 to 100 nM
Cc1cc2c(C(C)(C)C)c(C(=O)N(C)[C@H]3CCOc4ccccc43)cnn2c1-c1cc(F)cc(Cl)c1Cl [Compound A543, 4-tert-butyl-7-(2,3-dichloro-5-fluorophenyl)-N-[(4S)-3,4-dihydro-2H-1-benzopyran-4-yl]-N,6-dimethylpyrrolo[1,2-b]pyridazine-3-carboxamide] | 1000 to 10000 nM | 1000 to 10000 nM | –
Cc1cc2c(C(C)C)c(C(=O)NN3CCOc4ccccc43)cnn2c1-c1cc(Cl)cc(Cl)c1 [Compound A497] | 10 to 100 nM | – | 10 to 100 nM
O=C(N[C@H]1CCOc2ccccc21)c1cnn2c(-c3cc(Cl)cc(Cl)c3Cl)c(Cl)cc2c1N1CC(F)(F)C1 [Compound A506] | < 10 nM | < 10 nM | 10 to 100 nM
Cc1cc2c(C(C)(C)C)c(C(=O)N[C@H]3CCOc4ccccc43)cnn2c1N1CCC(F)(F)CC1 [Compound A527] | 100 to 1000 nM | 10 to 100 nM | 100 to 1000 nM
Cc1cc2c(N3CC(C)(F)C3)c(C(=O)N[C@H]3CCOc4ccccc43)cnn2c1-c1cc(Cl)cc(Cl)c1Cl [Compound A508] | 1000 to 10000 nM | – | –
CC(C)(C)c1c(C(=O)N[C@H]2CCOc3ccccc32)cnn2c(-c3cc(Cl)cc(Cl)c3Cl)c(Cl)cc12 [Compound A522] | < 10 nM | < 10 nM | < 10 nM
CC(C)(C)c1c(C(=O)NN2CCOc3ccccc32)cnn2c(-c3cc(Cl)cc(Cl)c3)c(Cl)cc12 [Compound A516] | < 10 nM | < 10 nM | 10 to 100 nM
Cc1cc2c(C(C)(C)C)c(C(=O)N[C@H]3CCOc4ccccc43)cnn2c1-c1c(F)cc(F)cc1F [Compound A476] | 10 to 100 nM | < 10 nM | 10 to 100 nM
CC(C)(C)c1c(C(=O)N[C@H]2CCOc3ccccc32)cnn2c(-c3cc(F)cc(Cl)c3Cl)c(Cl)cc12 [Compound A502, 4-tert-butyl-6-chloro-7-(2,3-dichloro-5-fluorophenyl)-N-[(4S)-3,4-dihydro-2H-1-benzopyran-4-yl]pyrrolo[1,2-b]pyridazine-3-carboxamide] | < 10 nM | < 10 nM | < 10 nM
Cc1cc2c(C(C)(C)C)c(C(=O)N[C@H]3CCOc4ccccc43)cnn2c1N1CCOCC1 [Compound A529] | 1000 to 10000 nM | 100 to 1000 nM | –
Cc1cc2c(C(C)(C)C)c(C(=O)N[C@H]3CCCc4cc(F)ccc43)cnn2c1-c1cc(F)cc(Cl)c1Cl [Compound A538] | 1000 to 10000 nM | 1000 to 10000 nM | –
Cc1cc2c(C(C)(C)C)c(C(=O)N[C@H]3CCOc4ccccc43)cnn2c1-c1c(Cl)cc(F)cc1Cl [Compound A487] | 10 to 100 nM | < 10 nM | 10 to 100 nM
Cc1cc2c(C(C)C)c(C(=O)N[C@H]3CCOc4ccccc43)cnn2c1-c1cc(F)cc(Cl)c1Cl [Compound A489] | < 10 nM | < 10 nM | –
Cc1cc2c(N3CC(C)(C)C3)c(C(=O)N[C@H]3CCOc4ccccc43)cnn2c1-c1cc(F)cc(Cl)c1Cl [Compound A512] | – | – | 1000 to 10000 nM
Cc1cc2c(C(C)(C)C)c(C(=O)N[C@H]3CCc4sc(Br)nc43)cnn2c1-c1cc(F)cc(Cl)c1Cl [Compound A536a] | < 10 nM | 10 to 100 nM | 10 to 100 nM
CC(C)(C)c1c(C(=O)N[C@H]2CCOc3ccccc32)cnn2c(-c3c(Cl)cc(F)cc3Cl)c(Cl)cc12 [Compound A485] | < 10 nM | < 10 nM | < 10 nM
Cc1cc2c(C(C)(C)C)c(C(=O)N[C@H]3CCCc4cnn(C(C)C)c43)cnn2c1-c1cc(F)cc(Cl)c1Cl [Compound A546] | – | 1000 to 10000 nM | –
Cc1cc2c(C(C)C)c(C(=O)N[C@H]3CCOc4ccccc43)cnn2c1-c1cc(Cl)cc(Cl)c1 [Compound A465, 7-(3,5-dichlorophenyl)-N-[(4S)-3,4-dihydro-2H-1-benzopyran-4-yl]-6-methyl-4-(propan-2-yl)pyrrolo[1,2-b]pyridazine-3-carboxamide] | 100 to 1000 nM | 10 to 100 nM | 10 to 100 nM
Cc1cc2c(C(C)(C)C)c(NC(=O)NC3CCCc4ncsc43)cnn2c1-c1cc(F)cc(Cl)c1Cl (centres unmarked) [Compound A535] | – | – | 1000 to 10000 nM
CC(C)(C)c1c(C(=O)N[C@H]2CCc3ccccc32)cnn2c(-c3cc(Cl)cc(Cl)c3)c(Cl)cc12 [Compound A492] | 10 to 100 nM | – | 100 to 1000 nM
Cc1cc2c(C(C)(C)C)c(C(=O)N[C@H]3CCn4cncc43)cnn2c1-c1cc(F)cc(Cl)c1Cl [Compound A552] | 1000 to 10000 nM | 1000 to 10000 nM | –

SMILES | EC50 [1] | EC50 [2] | EC50 [3]
Cc1cc(-c2cc(Cl)cc(Cl)c2)n2ncc(C(=O)N[C@H]3CCOc4ccccc43)c(C(C)C)c12 [Compound A469] | 10 to 100 nM | 10 to 100 nM | –
Cc1cc2c(N3CC(C)(C)C3)c(C(=O)N[C@H]3CCOc4ccccc43)cnn2c1-c1cc(F)cc(Cl)c1Cl [Compound A564] | 1000 to 10000 nM | 1000 to 10000 nM | –
Cc1cc2c(N3CCOCC3)c(C(=O)N[C@H]3CCOc4ccccc43)cnn2c1-c1cc(F)cc(Cl)c1Cl [Compound A490] | < 10 nM | < 10 nM | –
Cc1cc2c(N(C)C)c(C(=O)N[C@H]3CCOc4ccccc43)cnn2c1-c1cc(Cl)cc(Cl)c1Cl [Compound A568] | < 10 nM | – | < 10 nM
Cc1cc2c(C(C)(C)C)c(C(=O)N[C@H]3CCOc4ccccc43)cnn2c1-c1cccc(Cl)c1Cl [Compound A519] | < 10 nM | < 10 nM | –
CC(C)c1c(C(=O)N[C@H]2CCOc3ccccc32)cnn2c(-c3cc(Cl)cc(Cl)c3)cc(C(F)(F)F)c12 [Compound A468] | 1000 to 10000 nM | – | –
Cc1cc2c(C(C)(C)C)c(C(=O)N[C@H]3CCc4ccccc43)cnn2c1-c1cc(Cl)cc(Cl)c1 [Compound A480] | 1000 to 10000 nM | 100 to 1000 nM | –
Cc1cc2c(C(C)(C)C)c(C(=O)N[C@H]3CCOc4ccccc43)cnn2c1-c1cc(Cl)cc(Cl)c1 [Compound A464] | < 10 nM | < 10 nM | –
CC(C)c1c(C(=O)N[C@H]2CCOc3ccccc32)cnn2c(-c3cc(Cl)cc(Cl)c3)ccc12 [Compound A470] | 1000 to 10000 nM | – | –
CC1(F)CN(c2c(C(=O)N[C@H]3CCOc4ccccc43)cnn3c(-c4cc(Cl)cc(Cl)c4Cl)c(Cl)cc23)C1 [Compound A509] | 100 to 1000 nM | – | –
Cc1cc2c(C(C)(C)C)c(C(=O)N[C@H]3CC4(CCCC4)Oc4ccccc43)cnn2c1-c1cc(F)cc(Cl)c1Cl [Compound A548] | 1000 to 10000 nM | 1000 to 10000 nM | –
Cc1cc2c(C(C)(C)C)c(C(=O)N[C@H]3CCOc4ccccc43)cnn2c1-c1cc(Cl)cc(Cl)c1Cl [Compound A472] | < 10 nM | – | < 10 nM
Cc1cc2c(C(C)(C)C)c(C(=O)N[C@H]3CC(C)(C)Oc4ccccc43)cnn2c1-c1cc(F)cc(Cl)c1Cl [Compound A547] | 1000 to 10000 nM | 1000 to 10000 nM | –
CC1(C)CN(c2c(C(=O)N[C@H]3CCOc4ccccc43)cnn3c(-c4cc(Cl)cc(Cl)c4Cl)c(Cl)cc23)C1 [Compound A515] | – | – | 1000 to 10000 nM
Cc1cc2c(N3CCOCC3)c(C(=O)N[C@H]3CCOc4ccccc43)cnn2c1-c1cc(F)cc(F)c1F [Compound A491] | < 10 nM | < 10 nM | –
CN(C)c1c(C(=O)N[C@H]2CCOc3ccccc32)cnn2c(-c3cc(Cl)cc(Cl)c3)c(Cl)cc12 [Compound A475] | 100 to 1000 nM | – | 10 to 100 nM
Cc1cc2c(C(C)C)c(C(=O)Nc3cccc4ccccc34)cnn2c1-c1cc(Cl)cc(Cl)c1 [Compound A521] | – | 100 to 1000 nM | –
Cc1cc2c(C(C)(C)C)c(C(=O)N[C@H]3CCc4cnccc43)cnn2c1-c1cc(F)cc(Cl)c1Cl [Compound A556] | 1000 to 10000 nM | 1000 to 10000 nM | –
Cc1cc2c(C(C)(C)C)c(C(=O)N[C@@H]3CCc4sc(Br)nc43)cnn2c1-c1cc(F)cc(Cl)c1Cl [Compound A536b] | 1000 to 10000 nM | 1000 to 10000 nM | –
Cc1cc2c(C(C)(C)C)c(C(=O)N[C@H]3COc4ccccc43)cnn2c1-c1cc(F)cc(Cl)c1Cl [Compound A545] | – | 1000 to 10000 nM | –
CC1(F)CN(c2c(C(=O)N[C@H]3CCOc4ccccc43)cnn3c(-c4cc(F)cc(Cl)c4Cl)c(Cl)cc23)C1 [Compound A514] | 1000 to 10000 nM | – | –
CC(C)c1c(C(=O)N[C@H]2CCOc3ccccc32)cnn2c(-c3cc(Cl)cc(Cl)c3)cc(Cl)c12 [Compound A467] | 100 to 1000 nM | 100 to 1000 nM | –
Cc1cc2c(N3CC(C)(F)C3)c(C(=O)N[C@H]3CCOc4ccccc43)cnn2c1-c1cc(F)cc(Cl)c1Cl [Compound A562] | 1000 to 10000 nM | 1000 to 10000 nM | –
Cc1cc2c(C(C)(C)C)c(C(=O)NC3CCCc4sccc43)cnn2c1-c1cc(F)cc(Cl)c1Cl (centres unmarked) [Compound A537] | < 10 nM | 10 to 100 nM | –
CC(C)c1c(C(=S)N[C@H]2CCOc3ccccc32)cnn2c(-c3cc(F)cc(Cl)c3Cl)c(Cl)cc12 [Compound A539, 6-chloro-7-(2,3-dichloro-5-fluorophenyl)-N-[(4S)-3,4-dihydro-2H-1-benzopyran-4-yl]-4-(propan-2-yl)pyrrolo[1,2-b]pyridazine-3-carbothioamide] | 10 to 100 nM | 100 to 1000 nM | –
